Patent US20230277575A1 (priority 2020, published 2023)

Assays:
SARS-CoV-2 [1] = test: SARS-CoV-2 virus production in Vero E6 cells (TCID50); assay type: cell-based; conditions: for antiviral activity (conclusion, in words): SARS-CoV-2; for IC50: Severe acute respiratory syndrome coronavirus 2, Vero C1008, TCID50, Vero E6 cells, MOI 10^−3; for virus production (in words): increased drug concentration, dose response
Method: (§1) Seeding of cells and treatment with compound of interest were performed with each compound in triplicate at 5 concentrations, including negative and positive controls. Infection with SARS-CoV-2 was performed at one MOI (multiplicity of infection). Viral particles were recovered in the supernatant after incubation and quantification using TCID50 (tissue culture infectious dose 50%) and RT-PCR was performed. Toxicity measurement of compounds was made on separate cell lines. D1: cell seeding on 96 wells plate, Vero E6 cells. Growth conditions: medium DMEM high glucose (Dutsher L0104-500, lot MS008A) D2: dilution of compounds was carried out in a mix of 100% DMSO diluted to 50% in PBS (NACL-2) or in PBS at […] to avoid solubility issues of some compounds. Compounds were tested at 5 concentrations, from 10^−4 M to 10^−8 M by serial tenfold dilutions. Infection with SARS-CoV-2 clinical strain was performed to MOI 10^−3. D3: viral titers were determined by TCID50 method and calculated by the Spearman & Kärber algorithm. RT-qPCR on gene E of SARS-CoV-2 was determined by Taqman One-Step RT-qPCR. Infection process: at T0 infection was performed with SARS-CoV-2 MOI 10^−3 (0.001). At T0+1 h virus was removed and the plates were washed with PBS (2×1 mL), 1 mL medium was then added with compound from 100 μM to 10 nM. A 24 h incubation step was carried out. At T0+25 h, 500 μL of supernatant was recovered and TCID50 processing and RT-qPCR were performed. Following 4 additional days of incubation the endpoint was obtained and TCI D50 reading and calculation was performed.

SARS-CoV-2 [2] = test: SARS-CoV-2 genome copy number by RT-qPCR on gene E (Vero E6 cells); assay type: cell-based; conditions: for genome copy number (in words): increased drug concentration
Method: as §1

in vitro = conditions: human
[3] = Toxicity testing on Vero cells; conditions: African green monkey, Vero cells, CC50, Vero cells, 24 h post treatment
Vero cells = test: Toxicity testing on Vero cells; conditions: for CC50: Vero cells, 24 h post treatment

SMILES	antiviral activity (conclusion, in words) (SARS-CoV-2 [1])	IC50 (SARS-CoV-2 [1]) [µM]	virus production (in words) (SARS-CoV-2 [1])	IC50 times lower than that of NACI-1 (SARS-CoV-2 [1]; virus production IC50) [times]	genome copy number (in words) (SARS-CoV-2 [2])	CC50 (in vitro) [µM]	CC50 at 24 h [3] [µM]	CC50 (Vero cells) [µM]	log decrease in viral production (SARS-CoV-2 [1]; at 10 μM) [log]	toxicity observed in virus production test (SARS-CoV-2 [1]; at 100 μM)	IC50 times lower than that of Remdesivir (SARS-CoV-2 [1]; virus production IC50) [times]	IC50 (SARS-CoV-2 [2]; Severe acute respiratory syndrome coronavirus 2, Vero C1008, RT-qPCR on gene E, Vero E6 cells) [µM]	log decrease in copy genome (SARS-CoV-2 [2]; at 10 μM) [log]	toxicity observed in RT-qPCR test (SARS-CoV-2 [2]; at 100 μM)	CC50 (Vero cells; listed as clitocine) [µM]	toxicity on Vero cells (in words) (Vero cells; depending on the concentration used)
NC(=O)c1ncn([C@@H]2O[C@H](CO)[C@@H](O)[C@H]2O)c1O [Mizoribine, 1-[(2R,3R,4S,5R)-3,4-dihydroxy-5-(hydroxymethyl)oxolan-2-yl]-5-hydroxy-1H-imidazole-4-carboxamide]	Potent antiviral activity	0.66	decrease significantly	3	does not impact	850	191	191								
Nc1ncnc(N[C@@H]2O[C@H](CO)[C@@H](O)[C@H]2O)c1[N+](=O)[O-] [Compound 1, (2R,3R,4S,5R)-2-[(6-amino-5-nitropyrimidin-4-yl)amino]-5-(hydroxymethyl)oxolane-3,4-diol]	Potent antiviral activity	0.188	decrease significantly		decrease significantly	108	3.09		3	some toxicity was observed	5	0.176	~2	some toxicity was observed	3.09	some degree of toxicity
